According to patent US6306893A, “Taxoid derivatives and process for producing the same” (Ensuiko Sugar Refining Company, Ltd, priority 2000, dated 2001):
In brackets after ≈: the same amount, converted by molar mass. Entries after “also recorded” stand apart in the source; their conditions may differ.

Experiments:
[1] = cited from earlier work; for Solubility in water: background statement
[2] = Change in body weight of P388 leukemia cell implanted mice; format: in vivo, mouse; conditions: after i.p. administration
Protocol: FIG. 1 is a graph illustrating effect of taxoid derivatives on the body weight of P388 leukemia cell implanted mouse.
The mice used were 7 weeks age CDFl mice (male). P388 leukemia cells subcultured in DBA/2 mouse abdominal cavity were injected in the abdominal cavity in an amount of 10^6 cells per mouse. In the case of paclitaxel, samples were dissolved in a solution of ethanol:cremophor=1:1 to a concentration of 6 mg/ml and then diluted 30 times with physiological saline. This was administered intraperitoneally in a dose of 0.1 ml/10 g mouse/time. In the case of taxoid derivatives, samples were dissolved in a solution of ethanol:cremophor=1:1 to a concentration of 60 mg/ml and then diluted 30 times with physiological saline. This was administered intraperitoneally in a dose of 0.1 ml/10 g mouse/time.
The tests were performed by administering the sample for consecutive 5 days starting from the day next to the day when the P388 leukemia cells were injected into the abodominal cavity and observing survival days and change in body weight.

P388 leukemia cells = experiment: Antitumor test in mice implanted with P388 leukemia cells: survival days; format: in vivo, mouse; conditions: for Median of Survival Days: P388 i.p. in CDF1 male mice, control 7 days; for Median of Survival Days / % T/C: 20 mg/kg i.p., 5 consecutive days; for % T/C: median survival days treated × 100 / median of control
Source text: ^a) Median of survival days of each treated group (day) ×
100/Median of survival days of control group (day)

physchem = conditions: for solubility at 18 h: water
Protocol: 10 mg of each of paclitaxel, 7-GAG-PT, 7-MAG-PT, 10-GAG-DT (α-anomer), 10-GAG-DT (β-anomer) and 10-MAG-DT (α-anomer)was weighed. To those were added 5 ml of water and the mixture was stirred for 18 hours. After completion of the stirring, supernatant was filtered through a membrane filter (0.45 μm), and the filtrate was analyzed by HPLC. The conditions of HPLC analysis were as follows.

[3] = ratio to paclitaxel (0.4 μg/ml)

Row | Structure (SMILES) | Median of Survival Days (P388 leukemia cells) | % T/C (P388 leukemia cells) | Solubility in water relative to paclitaxel (physchem) | solubility at 18 h (physchem) | further results
1 | CC(=O)O[C@@]12CO[C@@H]1C[C@H](O)[C@@]1(C)C(=O)[C@H](O)C3=C(C)[C@@H](OC(=O)[C@H](O)[C@@H](NC(=O)OC(C)(C)C)c4ccccc4)C[C@@](O)([C@@H](OC(=O)c4ccccc4)[C@H]21)C3(C)C [Docetaxel, docetaxel] |  |  |  |  | Solubility in water of docetaxel relative to taxol ([1]; I. Ringel et al., J. Natl. Cancer Inst., 83, 288 (1991)): 35 times; Solubility in water [1]: very low solubility in water
2 | CC(=O)O[C@H]1C(=O)[C@@]2(C)[C@H]([C@H](OC(=O)c3ccccc3)[C@]3(O)C[C@H](OC(=O)[C@H](O)[C@@H](NC(=O)c4ccccc4)c4ccccc4)C(C)=C1C3(C)C)[C@]1(OC(C)=O)CO[C@@H]1C[C@@H]2O [Paclitaxel, paclitaxel] | 10 days | 143% |  |  | Change in body weight [2]: abrupt decrease in body weight; also recorded: decreased abruptly; Solubility in water [1]: very low solubility in water; also recorded: low solubility in water
3 | CC(=O)O[C@@]12CO[C@@H]1C[C@H](O)[C@@]1(C)C(=O)[C@H](OC(=O)COC3O[C@H](CO)[C@@H](O)[C@H](O)[C@@H]3O)C3=C(C)[C@@H](OC(=O)[C@H](O)[C@@H](NC(=O)OC(C)(C)C)c4ccccc4)C[C@@](O)([C@@H](OC(=O)c4ccccc4)[C@H]21)C3(C)C (stereo partly shown) [10-MAG-DT, Mannosyloxyacetyl-10-docetaxel] |  |  |  |  | Survival effect as compared with paclitaxel (P388 leukemia cells; P388 leukemia implanted mice, versus paclitaxel): substantially equivalent to that of paclitaxel
4 | CC(=O)O[C@@]12CO[C@@H]1C[C@H](O)[C@@]1(C)C(=O)[C@H](OC(=O)CO[C@H]3O[C@H](CO)[C@H](O)[C@H](O)[C@H]3O)C3=C(C)[C@@H](OC(=O)[C@H](O)[C@@H](NC(=O)OC(C)(C)C)c4ccccc4)C[C@@](O)([C@@H](OC(=O)c4ccccc4)[C@H]21)C3(C)C [10-GAG-DT (α-anomer), Galactosyloxyacetyl-10-docetaxel] | 12 days | 171% | 1204 times | 482 µg/mL (≈ 469 µM) | 
5 | CC(=O)O[C@H]1C(=O)[C@]2(C)[C@@H](OC(=O)COC3O[C@H](CO)[C@H](O)[C@H](O)[C@H]3O)C[C@H]3OC[C@@]3(OC(C)=O)[C@H]2[C@H](OC(=O)c2ccccc2)[C@]2(O)C[C@H](OC(=O)[C@H](O)[C@@H](NC(=O)c3ccccc3)c3ccccc3)C(C)=C1C2(C)C (stereo partly shown) [7-GAG-PT, Galactosyloxyacetyl-7-paclitaxel] |  |  |  | 67.8 µg/mL (≈ 63.1 µM) | Solubility in water relative to paclitaxel (physchem; [3]): 169 times
6 | CC(=O)O[C@@]12CO[C@@H]1C[C@H](O)[C@@]1(C)C(=O)[C@H](OC(=O)CO[C@@H]3O[C@H](CO)[C@H](O)[C@H](O)[C@H]3O)C3=C(C)[C@@H](OC(=O)[C@H](O)[C@@H](NC(=O)OC(C)(C)C)c4ccccc4)C[C@@](O)([C@@H](OC(=O)c4ccccc4)[C@H]21)C3(C)C [10-GAG-DT (β-anomer), Galactosyloxyacetyl-10-docetaxel] | 12 days | 171% | 753 times | 301 µg/mL (≈ 293 µM) | 
7 | CC(=O)O[C@H]1C(=O)[C@]2(C)[C@@H](OC(=O)COC3O[C@H](CO)[C@@H](O)[C@H](O)[C@@H]3O)C[C@H]3OC[C@@]3(OC(C)=O)[C@H]2[C@H](OC(=O)c2ccccc2)[C@]2(O)C[C@H](OC(=O)[C@H](O)[C@@H](NC(=O)c3ccccc3)c3ccccc3)C(C)=C1C2(C)C (stereo partly shown) [7-MAG-PT, Mannosyloxyacetyl-7-paclitaxel] |  |  |  | 103 µg/mL (≈ 95.9 µM) | Solubility in water relative to paclitaxel (physchem; [3]): 257 times
8 | CC(=O)O[C@@]12CO[C@@H]1C[C@H](O)[C@@]1(C)C(=O)[C@H](OC(=O)COC3O[C@H](CO)[C@H](O)[C@H](O)[C@H]3O)C3=C(C)[C@@H](OC(=O)[C@H](O)[C@@H](NC(=O)OC(C)(C)C)c4ccccc4)C[C@@](O)([C@@H](OC(=O)c4ccccc4)[C@H]21)C3(C)C (stereo partly shown) [10-GAG-DT, Galactosyloxyacetyl-10-docetaxel] |  |  |  |  | Antitumor / physiological activity (P388 leukemia cells; P388 leukemia implanted mice): excellent antitumor activity; Survival effect as compared with paclitaxel (P388 leukemia cells; P388 leukemia implanted mice, ratio to paclitaxel): 1.2 times
9 | CC(=O)O[C@@]12CO[C@@H]1C[C@H](O)[C@@]1(C)C(=O)[C@H](OC(=O)CO[C@H]3O[C@H](CO)[C@@H](O)[C@H](O)[C@@H]3O)C3=C(C)[C@@H](OC(=O)[C@H](O)[C@@H](NC(=O)OC(C)(C)C)c4ccccc4)C[C@@](O)([C@@H](OC(=O)c4ccccc4)[C@H]21)C3(C)C [10-MAG-DT (α-anomer), Mannosyloxyacetyl-10-docetaxel] | 9 days | 129% | 2596 times | 1040 µg/mL (≈ 1010 µM) | 
